Laboratory results taken from patent US7968556B2, “Heteroaryl compounds, compositions thereof, and methods of treatment therewith” (Signal Pharmaceuticals, LLC, priority 2006, dated 2011).

Assays:
IKK-2 = target: T1, IKK-2 (Homo sapiens, UniProt O14920, S177E/S181E); test: IKK-2 screening assay (IKK2EE 33P Assay / IKK2EE NEMO HTRF Assay); type: biochemical
T1 sequence (O14920 1-756 S177E/S181E): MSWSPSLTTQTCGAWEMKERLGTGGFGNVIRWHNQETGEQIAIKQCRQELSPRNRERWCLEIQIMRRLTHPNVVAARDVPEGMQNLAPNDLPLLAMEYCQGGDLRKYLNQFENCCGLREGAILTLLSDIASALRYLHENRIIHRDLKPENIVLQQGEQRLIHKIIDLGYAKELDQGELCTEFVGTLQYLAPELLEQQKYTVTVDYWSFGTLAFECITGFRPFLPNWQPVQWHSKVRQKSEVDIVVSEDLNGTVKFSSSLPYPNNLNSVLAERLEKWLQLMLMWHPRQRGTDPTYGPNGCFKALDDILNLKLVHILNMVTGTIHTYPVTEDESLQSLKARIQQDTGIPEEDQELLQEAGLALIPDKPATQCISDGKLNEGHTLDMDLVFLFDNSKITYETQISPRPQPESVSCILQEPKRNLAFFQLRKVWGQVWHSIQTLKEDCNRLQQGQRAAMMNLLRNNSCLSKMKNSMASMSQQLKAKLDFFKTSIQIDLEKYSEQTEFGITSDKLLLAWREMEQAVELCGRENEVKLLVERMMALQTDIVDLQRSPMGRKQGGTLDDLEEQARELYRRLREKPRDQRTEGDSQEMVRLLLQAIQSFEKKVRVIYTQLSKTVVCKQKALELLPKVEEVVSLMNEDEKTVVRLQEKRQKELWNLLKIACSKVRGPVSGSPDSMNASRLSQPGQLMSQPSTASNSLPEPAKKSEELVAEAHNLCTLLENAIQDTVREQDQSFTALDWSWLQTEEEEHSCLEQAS
Method: The following is an example of an assay that can be used to determine the IKK2EE inhibitory activity of a test compound.
A reaction buffer (pH 7.8) is prepared containing HEPES (20 mM), MgCl2 (10 mM), EDTA (0.1 mM), DTT (1 mM) and Triton X-100 (0.004%). IKK2EE (0.75 μg/ml is used. GST-IKBα (50 μg/ml) is used as substrate. Adenosine 5′-triphosphate (1.5 μM with ^33P-ATP 5 nCi/μl) is used. Reactions are stopped with trichloroacetic acid (6.25%).
Appropriate amounts of test compounds or controls in 100% DMSO are added to the assay plate. A peptide-substrate solution (PSS) is prepared by adding peptide stock to an appropriate volume of buffer (peptide concentration in the PSS will be about 100 μg/ml). An enzyme-peptide solution (EPS) is prepared by adding enzyme stock to an appropriate volume of PSS (the enzyme concentration in the EPS will be about 1 μg/ml). An ATP solution is prepared by adding ATP stock to an appropriate volume of buffer (the ATP concentration will be 15 μM).
85 μl of EPS is added to the assay wells (or PSS to positive control wells) of 96 well polypropylene plates. The ATP solution is then completed by adding ^33P-ATP (to a final concentration of 50 μCi/ml).
The reaction is initiated by adding 10 μl ATP solution to each well. Plates are shaken from about 12 seconds and allowed to incubate at room temperature for 1 hours. 100 μl of trichloroacetic acid solution (12.5%) is added to stop the reaction and the plates are incubated at room temperature for at least 10 minutes. The assay plates are harvested onto a Millipore Multiscreen harvest Plate FC using an appropriate harvester and the harvest plates are washed with 1×PBS solution for about 10 seconds (continuous flow). Harvest plates are allowed to dry thoroughly and the bottoms of the plates are sealed. 20-50 μl of Microscint20 is added to each well, tops are sealed and plates are read using an appropriate scintillation counter.
A reaction buffer (pH 7.6) is prepared containing HEPES (20 mM), MgCl2 (10 mM), EDTA (0.05 mM), DTT (1 mM) and Triton X-100 (0.004%). IKK2EE-NEMO (0.7 μg/ml is used. GST-IKBα (0.5 μg/ml) is used as substrate. Adenosine 5′-triphosphate (1.5 μM) is used. Detection reagents used are mouse anti-P-IKBα (30 ng/ml), Eu anti-mouse (300 ng/ml) and Cy5 anti-GST (11.5 μg/ml). Reactions are stopped with EDTA (20 mM).
An enzyme solution (ES) is prepared by adding enzyme stock to an appropriate volume of buffer (enzyme concentration in the ES will be about 1.7 ng/ml). A detection mixture (DM) is prepared by adding ATP (final conc. 3.75 μM), mouse anti-P-IKBα (final conc. 75 ng/ml), GST-IKBα (final conc. 1.26 μg/ml), Eu anti-mouse in buffer (final conc. 750 ng/ml).
5 μl of compound (solvated in 10% DMSO) is added to assay wells (or 10% DMSO to control wells) of low binding reaction plates. […] ES is added to assay wells (or buffer to control wells) and the reaction is initiated by adding 10 μl DM to all wells. Plates are incubated at room temperature for 45 minutes. Stop mixture is prepared by adding EDTA (final conc. 70 mM) and Cy5 anti-GST (final conc. 40 μg/ml) to an appropriate volume of buffer. Stop mixture is added and plates are shaken for 20 seconds and incubated at room temperature for at least 3 hours (preferably in the dark). Plates are read on an Analyst HT using Multi-Method HTRF.

SMILES	melting point	IC50 (IKK-2)
NC(=O)c1nc(-c2cccnc2)nc2c1[nH]c(=O)n2[C@H]1CC[C@H](O)CC1 [Compound 50, 9-(trans-4-Hydroxycyclohexyl)-8-oxo-2-(pyridin-3-yl)-8,9-dihydro-7H-purine-6-carboxamide]	343 to 345 °C	0.1 to 5 µM
COc1ccccc1-n1c(=O)[nH]c2c(C(N)=O)nc(-c3ccnc(O)c3)nc21 [Compound 13, 2-(2-hydroxypyridin-4-yl)-9-(2-methoxyphenyl)-8-oxo-8,9-dihydro-7H-purine-6-carboxamide]	360 to 362 °C	> 30 µM
COc1ccccc1-n1c(=O)[nH]c2c(C(N)=O)nc(-c3ccc(O)cc3)nc21 [Compound 8, 2-(4-hydroxyphenyl)-9-(2-methoxyphenyl)-8-oxo-8,9-dihydro-7H-purine-6-carboxamide]	362 to 363 °C	> 30 µM
